Data on seven compounds can be found in PubChem BioAssay (NCI).

Values joined by “and” are separate entries in the source; they are usually repeats but may differ in a detail not shown here. Equal entries are not always repeated.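 Values below derive from 48-hour exposures of cells grown in 96-well plates, with endpoints linearly interpolated between the two concentrations bracketing the appropriate inhibition level. GI50 = concentration required for 50% inhibition of growth. At the TGI there is no net growth.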

Some test systems named below: BT-549 breast; T-47D breast; SR leukemia; MALME-3M melanoma; CAKI-1 renal; SK-MEL-2 melanoma; DU-145 prostate; A498 renal; MDA-MB-231 breast; NCI/ADR-RES ovarian; PC-3 prostate; HOP-92 NSCLC; ACHN renal; MDA-MB-435; MOLT-4 leukemia; DLD-1 colon; DMS 114 small cell lung; KM20L2 colon; SNB-78 CNS.
Common to all, as to experiment: NCI tumour cell line growth inhibition, 48 h

`O=c1cnn(C/C=C/CP(=O)(O)O)c(=O)[nH]1`: the TGI with BT-549 breast, in the experiment with T-47D breast, in the experiment with SR leukemia, with MALME-3M melanoma, in the experiment with CAKI-1 renal and in the experiment on SK-MEL-2 melanoma was > 100 µM in each case. Besides, the TGI in the experiment with DU-145 prostate, with A498 renal, in the experiment with MDA-MB-231 breast, in the experiment on NCI/ADR-RES ovarian, in the experiment with PC-3 prostate and in the experiment on HOP-92 NSCLC was > 100 µM throughout. Also, the TGI with ACHN renal and in the experiment on MDA-MB-435 was > 100 µM throughout.

For `CC(C)OP(=O)(OC(C)C)c1nn(-c2ccc([N+](=O)[O-])cc2)c(=N)s1`, the TGI in the experiment on MOLT-4 leukemia, in the experiment on DLD-1 colon, in the experiment on MALME-3M melanoma, in the experiment with CAKI-1 renal, in the experiment with DMS 114 small cell lung and in the experiment on A498 renal was > 100 µM in each case. Besides, the TGI with HOP-92 NSCLC, with KM20L2 colon and in the experiment with ACHN renal was > 100 µM throughout.

For `CCOC(=O)c1csc(NC(=O)CN2CCCCC2)n1`, the TGI with MOLT-4 leukemia, in the experiment on T-47D breast, with CAKI-1 renal, in the experiment on SK-MEL-2 melanoma, in the experiment on DU-145 prostate and in the experiment on A498 renal was > 100 µM in each case. In addition, the TGI in the experiment with MDA-MB-231 breast, in the experiment with NCI/ADR-RES ovarian, in the experiment on PC-3 prostate, in the experiment with HOP-92 NSCLC, with ACHN renal and in the experiment on MDA-MB-435 was > 100 µM in each case.

With `COC1C(=[N+]=[N-])C(=O)NC(=O)N1C1OC(COC(c2ccccc2)(c2ccccc2)c2ccccc2)C(O)C1O` (stereo not drawn), the TGI in the experiment on MOLT-4 leukemia worked out at 49.7 µM; with DLD-1 colon, 37.3 µM; in the experiment on SNB-78 CNS, 45.6 µM; with MALME-3M melanoma it was 33.8 µM; with CAKI-1 renal, 56.1 µM; with SK-MEL-2 melanoma, 38.4 µM. Also, the TGI in the experiment on A498 renal was found to be 35.4 µM; with KM20L2 colon, 31.1 µM; with ACHN renal, 38.3 µM.

Turning to `OC12c3ccccc3C1CCCCCCCCCC21OCCCO1` (stereo not drawn), the TGI in the experiment with DLD-1 colon, with SNB-78 CNS, with SR leukemia, with MALME-3M melanoma and with DMS 114 small cell lung was > 100 µM in each case.

Consider `COc1cccc(N2C(=O)CSC2c2c[nH]c3ccccc23)c1` (stereo not drawn), for which the TGI with MOLT-4 leukemia, in the experiment with BT-549 breast, with T-47D breast, in the experiment with SR leukemia, in the experiment on DU-145 prostate and in the experiment on MDA-MB-231 breast was > 100 µM throughout. Besides, the TGI with PC-3 prostate, in the experiment with HOP-92 NSCLC and in the experiment with MDA-MB-435 was > 100 µM throughout.

On to `COC(=O)C1C(O)C(C)C(O)C(C)/C=C\C=C(C)C(=O)Nc2c(C)c(OC(C)=O)c3c(c2O)C(=O)C(C)=C2OCOC(=C23)C(C)=CC(C)(O)C(O)C(C)C1O` (stereo not drawn), for which the GI50 in the experiment on MOLT-4 leukemia was 18.1 µM and 51.1 µM. The TGI with MOLT-4 leukemia was 45.4 µM and > 100 µM; in the experiment with BT-549 breast it was > 100 µM; with T-47D breast, > 100 µM; with DLD-1 colon, 31.4 µM; with SNB-78 CNS, > 75 µM; in the experiment on SR leukemia, > 100 µM. In addition, the TGI with MALME-3M melanoma is > 100 µM; in the experiment with CAKI-1 renal, > 62.2 µM; with SK-MEL-2 melanoma it was 36.2 µM and > 100 µM; with DMS 114 small cell lung, 52.6 µM; in the experiment on DU-145 prostate it was > 100 µM; with A498 renal, > 75 µM. Also, the TGI is > 100 µM with MDA-MB-231 breast; > 100 µM with NCI/ADR-RES ovarian; > 100 µM with PC-3 prostate; > 100 µM in the experiment on HOP-92 NSCLC; > 72.8 µM in the experiment on KM20L2 colon; > 100 µM in the experiment on ACHN renal. The TGI in the experiment on MDA-MB-435 is > 100 µM.
